Reference: ChEMBL document CHEMBL3991601, “The target landscape of clinical kinase drugs” (Science, 2017)
Activity calls are given as the source filed them.

Key:
[1] = target: T1, Long-chain-fatty-acid--CoA ligase 5 (Homo sapiens, UniProt Q9ULC5)
T1 sequence (Q9ULC5 whole entry): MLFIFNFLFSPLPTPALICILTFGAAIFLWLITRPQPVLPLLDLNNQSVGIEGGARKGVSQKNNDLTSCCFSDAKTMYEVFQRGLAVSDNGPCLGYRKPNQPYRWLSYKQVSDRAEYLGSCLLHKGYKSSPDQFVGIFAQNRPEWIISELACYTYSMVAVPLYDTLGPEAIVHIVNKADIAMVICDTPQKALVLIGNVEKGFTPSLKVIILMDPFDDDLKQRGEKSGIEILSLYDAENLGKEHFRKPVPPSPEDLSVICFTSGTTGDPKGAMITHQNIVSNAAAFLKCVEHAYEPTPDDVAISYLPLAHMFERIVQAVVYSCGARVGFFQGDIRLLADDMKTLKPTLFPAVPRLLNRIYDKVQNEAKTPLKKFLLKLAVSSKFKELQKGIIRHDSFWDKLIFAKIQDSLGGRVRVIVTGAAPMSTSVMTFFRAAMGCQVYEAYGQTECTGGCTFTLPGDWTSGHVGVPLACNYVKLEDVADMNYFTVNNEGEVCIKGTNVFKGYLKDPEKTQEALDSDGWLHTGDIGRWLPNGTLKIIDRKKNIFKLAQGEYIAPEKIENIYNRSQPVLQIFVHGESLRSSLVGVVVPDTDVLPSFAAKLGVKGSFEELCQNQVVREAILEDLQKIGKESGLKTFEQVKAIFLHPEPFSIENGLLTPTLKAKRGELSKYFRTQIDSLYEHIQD

[2] = target: T2, Electron transfer flavoprotein subunit beta (Homo sapiens, UniProt P38117)
T2 sequence (P38117 whole entry): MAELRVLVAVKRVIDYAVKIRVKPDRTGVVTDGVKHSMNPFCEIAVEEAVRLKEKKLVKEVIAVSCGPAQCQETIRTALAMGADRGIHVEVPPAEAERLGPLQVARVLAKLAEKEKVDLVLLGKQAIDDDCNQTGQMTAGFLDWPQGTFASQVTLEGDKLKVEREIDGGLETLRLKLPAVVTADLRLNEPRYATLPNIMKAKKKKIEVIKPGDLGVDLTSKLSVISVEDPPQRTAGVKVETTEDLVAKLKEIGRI

[3] = target: T3, Dual specificity mitogen-activated protein kinase kinase 4 (Homo sapiens, UniProt P45985)
T3 sequence (P45985 whole entry): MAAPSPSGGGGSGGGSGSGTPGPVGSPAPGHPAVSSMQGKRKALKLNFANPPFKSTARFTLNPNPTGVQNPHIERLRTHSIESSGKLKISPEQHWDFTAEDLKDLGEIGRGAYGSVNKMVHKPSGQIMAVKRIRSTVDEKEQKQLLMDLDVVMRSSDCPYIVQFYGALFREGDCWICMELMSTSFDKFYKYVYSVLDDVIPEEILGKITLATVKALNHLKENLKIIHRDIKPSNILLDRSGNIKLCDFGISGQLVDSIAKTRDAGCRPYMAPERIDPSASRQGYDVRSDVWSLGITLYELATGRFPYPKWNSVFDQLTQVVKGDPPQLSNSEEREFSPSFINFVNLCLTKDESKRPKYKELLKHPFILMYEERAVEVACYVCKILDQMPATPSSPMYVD

[4] = target: Serine/threonine-protein kinase Nek7 (Homo sapiens, UniProt Q8TDX7)
[5] = target: Serine/threonine-protein kinase PAK 6 (Homo sapiens, UniProt Q9NQU5)
[6] = target: Serine/threonine-protein kinase N3 (Homo sapiens, UniProt Q6P5Z2)
[7] = target: T4, Dual specificity protein kinase TTK (Homo sapiens, UniProt P33981)
T4 sequence (P33981 whole entry): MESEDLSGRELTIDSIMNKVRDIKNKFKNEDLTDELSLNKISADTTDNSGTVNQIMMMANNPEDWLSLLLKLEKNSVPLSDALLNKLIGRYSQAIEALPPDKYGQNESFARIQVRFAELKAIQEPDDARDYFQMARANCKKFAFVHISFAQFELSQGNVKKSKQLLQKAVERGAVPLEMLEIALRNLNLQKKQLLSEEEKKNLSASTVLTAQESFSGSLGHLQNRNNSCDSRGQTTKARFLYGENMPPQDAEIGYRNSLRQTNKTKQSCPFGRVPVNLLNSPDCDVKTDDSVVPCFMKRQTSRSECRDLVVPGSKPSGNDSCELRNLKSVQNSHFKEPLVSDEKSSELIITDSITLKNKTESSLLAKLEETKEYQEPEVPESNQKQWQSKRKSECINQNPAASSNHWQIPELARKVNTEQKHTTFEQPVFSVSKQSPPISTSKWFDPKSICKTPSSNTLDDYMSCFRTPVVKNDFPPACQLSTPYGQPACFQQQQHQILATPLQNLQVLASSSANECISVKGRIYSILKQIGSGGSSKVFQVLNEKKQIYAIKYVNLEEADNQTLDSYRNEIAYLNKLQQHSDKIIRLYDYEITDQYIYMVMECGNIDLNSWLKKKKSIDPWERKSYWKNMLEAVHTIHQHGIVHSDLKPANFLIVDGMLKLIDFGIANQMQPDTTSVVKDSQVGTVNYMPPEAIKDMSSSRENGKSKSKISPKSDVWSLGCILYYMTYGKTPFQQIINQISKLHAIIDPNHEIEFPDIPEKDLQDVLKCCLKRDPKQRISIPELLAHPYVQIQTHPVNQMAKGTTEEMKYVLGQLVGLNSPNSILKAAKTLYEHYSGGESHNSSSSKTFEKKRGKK

[8] = target: Serine/threonine-protein kinase pim-2 (Homo sapiens, UniProt Q9P1W9)

Measured: Kd
Note: in the data inactive means no Kd found up to 30 µM.

Serine/threonine-protein kinase PAK 6, sequence (Q9NQU5 whole entry): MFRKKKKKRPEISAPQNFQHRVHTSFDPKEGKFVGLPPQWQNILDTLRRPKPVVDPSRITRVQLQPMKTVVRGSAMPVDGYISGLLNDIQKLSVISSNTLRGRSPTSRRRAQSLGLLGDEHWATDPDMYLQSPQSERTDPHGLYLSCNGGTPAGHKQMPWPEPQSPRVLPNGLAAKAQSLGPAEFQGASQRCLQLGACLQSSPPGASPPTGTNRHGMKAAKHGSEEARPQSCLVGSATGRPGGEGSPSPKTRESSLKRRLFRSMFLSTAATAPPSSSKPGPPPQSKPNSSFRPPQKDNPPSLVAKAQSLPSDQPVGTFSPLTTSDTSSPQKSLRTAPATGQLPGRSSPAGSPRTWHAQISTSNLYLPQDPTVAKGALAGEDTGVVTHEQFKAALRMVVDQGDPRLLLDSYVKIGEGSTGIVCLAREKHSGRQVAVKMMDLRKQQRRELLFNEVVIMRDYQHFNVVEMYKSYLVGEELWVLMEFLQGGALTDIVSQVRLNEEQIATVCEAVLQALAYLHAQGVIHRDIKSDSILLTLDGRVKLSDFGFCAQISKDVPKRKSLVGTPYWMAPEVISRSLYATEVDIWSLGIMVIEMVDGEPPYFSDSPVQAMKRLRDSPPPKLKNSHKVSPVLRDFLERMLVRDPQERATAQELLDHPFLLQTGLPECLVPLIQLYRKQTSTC
Serine/threonine-protein kinase Nek7, sequence (Q8TDX7 whole entry): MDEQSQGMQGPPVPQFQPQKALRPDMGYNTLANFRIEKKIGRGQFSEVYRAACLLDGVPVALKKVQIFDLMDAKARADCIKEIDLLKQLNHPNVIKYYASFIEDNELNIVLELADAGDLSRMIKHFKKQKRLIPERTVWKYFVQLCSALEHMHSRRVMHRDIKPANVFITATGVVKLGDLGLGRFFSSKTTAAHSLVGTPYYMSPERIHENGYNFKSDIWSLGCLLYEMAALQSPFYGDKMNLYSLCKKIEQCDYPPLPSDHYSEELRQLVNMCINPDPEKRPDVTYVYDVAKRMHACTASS
Serine/threonine-protein kinase pim-2, sequence (Q9P1W9 whole entry): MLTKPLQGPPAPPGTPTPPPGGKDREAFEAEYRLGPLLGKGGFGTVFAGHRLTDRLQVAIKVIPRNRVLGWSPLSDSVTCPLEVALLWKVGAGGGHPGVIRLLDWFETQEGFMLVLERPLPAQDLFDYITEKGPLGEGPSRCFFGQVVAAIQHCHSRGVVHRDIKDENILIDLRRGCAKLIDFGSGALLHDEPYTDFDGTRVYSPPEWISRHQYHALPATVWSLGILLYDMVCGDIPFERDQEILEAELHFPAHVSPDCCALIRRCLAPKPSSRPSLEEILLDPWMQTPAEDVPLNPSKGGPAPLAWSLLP
Serine/threonine-protein kinase N3, sequence (Q6P5Z2 whole entry): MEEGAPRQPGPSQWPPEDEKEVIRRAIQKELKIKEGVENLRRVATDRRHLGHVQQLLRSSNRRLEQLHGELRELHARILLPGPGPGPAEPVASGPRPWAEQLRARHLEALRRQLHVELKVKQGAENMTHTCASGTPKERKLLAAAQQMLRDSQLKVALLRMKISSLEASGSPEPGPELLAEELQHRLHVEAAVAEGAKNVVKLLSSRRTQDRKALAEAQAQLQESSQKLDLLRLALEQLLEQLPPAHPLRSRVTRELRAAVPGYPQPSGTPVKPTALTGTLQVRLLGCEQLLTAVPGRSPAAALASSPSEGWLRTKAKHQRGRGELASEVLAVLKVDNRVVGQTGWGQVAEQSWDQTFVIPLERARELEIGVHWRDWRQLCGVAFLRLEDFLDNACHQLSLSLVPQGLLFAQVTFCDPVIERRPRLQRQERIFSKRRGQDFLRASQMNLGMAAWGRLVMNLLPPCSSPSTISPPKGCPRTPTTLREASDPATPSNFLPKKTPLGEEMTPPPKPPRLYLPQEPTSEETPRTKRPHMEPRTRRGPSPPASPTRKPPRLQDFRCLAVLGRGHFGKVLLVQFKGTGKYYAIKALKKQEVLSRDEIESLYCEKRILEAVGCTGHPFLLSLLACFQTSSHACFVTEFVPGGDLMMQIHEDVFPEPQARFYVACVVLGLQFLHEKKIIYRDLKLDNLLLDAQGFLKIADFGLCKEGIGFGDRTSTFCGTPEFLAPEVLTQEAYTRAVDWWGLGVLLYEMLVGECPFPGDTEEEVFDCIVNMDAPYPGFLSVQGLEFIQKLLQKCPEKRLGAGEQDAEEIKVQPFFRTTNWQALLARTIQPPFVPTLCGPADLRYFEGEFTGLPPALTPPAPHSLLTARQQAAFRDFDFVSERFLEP

COc1cc(Nc2ncc3c(n2)-c2ccc(Cl)cc2C(c2c(F)cccc2OC)=NC3)ccc1C(=O)O [ALISERTIB]
inactive: [1] > 30 µM | [2] > 30 µM | [3] > 30 µM | [4] > 30 µM | [5] > 30 µM | [6] > 30 µM | [7] > 30 µM

CCn1cc(-c2ccnc3[nH]c(-c4cccc(CN(C)C)c4)cc23)c(-c2ccc(NC(=O)N(C)C)cc2)n1 [GSK-1070916]
inactive: [3] > 30 µM | [4] > 30 µM | [5] > 30 µM | [8] > 30 µM | [6] > 30 µM | [7] > 30 µM

CNC(=O)c1nn(C)c2c1C(C)(C)Cc1cnc(Nc3ccc(N4CCN(C)CC4)cc3)nc1-2 [MILCICLIB]
inactive: [1] > 30 µM | [3] > 30 µM | [4] > 30 µM | [5] > 30 µM | [8] > 30 µM | [6] > 30 µM | [7] > 30 µM

Cc1[nH]c(/C=C2\C(=O)Nc3ccccc32)c(C)c1CCC(=O)O [ORANTINIB]
inactive: [1] > 30 µM | [2] > 30 µM | [3] > 30 µM | [4] > 30 µM | [5] > 30 µM | [6] > 30 µM | [7] > 30 µM

CCOc1cc2ncc(C#N)c(Nc3ccc(F)c(Cl)c3)c2cc1NC(=O)/C=C/CN(C)C [PELITINIB]
inactive: [2] > 30 µM | [3] > 30 µM | [4] > 30 µM | [5] > 30 µM | [8] > 30 µM | [6] > 30 µM | [7] > 30 µM

CO[C@H]1C[C@@H]2CC[C@@H](C)[C@@](O)(O2)C(=O)C(=O)N2CCCC[C@H]2C(=O)O[C@H]([C@H](C)C[C@@H]2CC[C@@H](OP(C)(C)=O)[C@H](OC)C2)CC(=O)[C@H](C)/C=C(\C)[C@@H](O)[C@@H](OC)C(=O)[C@H](C)C[C@H](C)/C=C/C=C/C=C/1C [RIDAFOROLIMUS]
inactive: [1] > 30 µM | [2] > 30 µM | [3] > 30 µM | [4] > 30 µM | [8] > 30 µM | [6] > 30 µM | [7] > 30 µM

CN1CCN(CCOc2cc(OC3CCOCC3)c3c(Nc4c(Cl)ccc5c4OCO5)ncnc3c2)CC1 [SARACATINIB]
inactive: [1] > 30 µM | [3] > 30 µM | [4] > 30 µM | [5] > 30 µM | [8] > 30 µM | [6] > 30 µM | [7] > 30 µM

CO[C@H]1C[C@@H]2CC[C@@H](C)[C@@](O)(O2)C(=O)C(=O)N2CCCC[C@H]2C(=O)O[C@H]([C@H](C)C[C@@H]2CC[C@@H](OC(=O)C(C)(CO)CO)[C@H](OC)C2)CC(=O)[C@H](C)/C=C(\C)[C@@H](O)[C@@H](OC)C(=O)[C@H](C)C[C@H](C)/C=C/C=C/C=C/1C [TEMSIROLIMUS]
inactive: [1] > 30 µM | [2] > 30 µM | [3] > 30 µM | [4] > 30 µM | [5] > 30 µM | [8] > 30 µM | [6] > 30 µM | [7] > 30 µM
